# Assay results as given in ChEMBL document CHEMBL3137547, “Open Source Malaria Deposition 2. http://malaria.ourexperiment.org”.
# pEC50: −log10 of the molar value.
# Test system: Plasmodium falciparum
# Assay: OSM: Erythrocyte assay. NF54 with 3H-Hypoxanthine at 72hr time point.
# Format: functional, organism-based
row,Compound,pEC50
1,COc1ccc2ccc(Oc3cncc4nnc(-c5ccc(OC(F)F)cc5)n34)cc2n1,5.78
2,FC(F)Oc1ccc(-c2nnc3cncc(OCc4cccc5ccccc45)n23)cc1,5.78
3,Fc1ccc([C@@H]2[C@@H](Oc3cncc4nnc(-c5ccc(OC(F)F)cc5)n34)CN2C2CC2)cc1F,6.14
4,CC(O)(COc1cncc2nnc(-c3ccc(OC(F)F)cc3)n12)c1ccc(F)c(F)c1 (stereo unspecified),6.99
5,FC(F)Oc1ccc(-c2nnc3cncc(Oc4cccc(Oc5ccccn5)c4)n23)cc1,5.22
6,FC(F)Oc1ccc(-c2nnc3cncc(OCC4CCc5cc(Cl)ccc54)n23)cc1 (stereo unspecified),5.84
7,CC(F)(COc1cncc2nnc(-c3ccc(OC(F)F)cc3)n12)c1ccc(F)c(F)c1 (stereo unspecified),6.91
8,FC(F)Oc1ccc(-c2nnc3cncc(Oc4ccc5nc(C(F)(F)F)ncc5c4)n23)cc1,5.69
9,Fc1ccc(C(F)COc2cncc3nnc(-c4ccc(OC(F)F)cc4)n23)cc1F (stereo unspecified),7.18
10,FC(F)Oc1ccc(-c2nnc3cncc(Oc4ccc5ccsc5c4)n23)cc1,6.24
11,Fc1ccc(CCOc2ccc3nnc(-c4ccc(OC(F)F)cc4)n3n2)cc1F,5.17
12,Fc1cc2ccc(Oc3cncc4nnc(-c5ccc(OC(F)F)cc5)n34)cc2cc1F,6.08
13,Fc1cc(F)c2ccc(Oc3cncc4nnc(-c5ccc(OC(F)F)cc5)n34)cc2c1,6.76
14,Fc1ccc(CCNc2ccc3nnc(-c4ccc(OC(F)F)cc4)n3n2)cc1,6.29
15,O=C(Cc1cccc(Cl)c1)Nc1cn2c(-c3ccc(OC(F)F)cc3)nnc2cn1,5.00
16,N#Cc1ccc(-c2nnc3ccc(NCCc4cccnc4)nn23)cc1,5.00
